# From the supplement of paper PMC10307832
# Columns and labels:
# Assay in all cases: relative viability (nuclei count vs DMSO), 5 days (fraction); higher = more cells survive
# Dabrafenib + Decitabine = compound: CC(C)(C)c1nc(-c2cccc(NS(=O)(=O)c3c(F)cccc3F)c2F)c(-c2ccnc(N)n2)s1 [Dabrafenib] + Nc1ncn([C@H]2C[C@H](O)[C@@H](CO)O2)c(=O)n1 [Decitabine] (partner 2 µM)
# Outline: (§1)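 Relative viability equals treated-well nuclei counts divided by vehicle-well nuclei counts. Counts came from 4× images of lung cancer cell lines grown in 1536-well plates for 5 days after pin-tool dosing on the day after seeding. Dosing used one drug alone or a fixed anchor-drug dose plus five library-drug doses (not always all listed) in √10 steps, and values are medians of duplicate plates.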
# VX-702 + Navitoclax = compound: NC(=O)c1ccc(N(C(N)=O)c2c(F)cccc2F)nc1-c1ccc(F)cc1F [VX-702] + CC1(C)CCC(c2ccc(Cl)cc2)=C(CN2CCN(c3ccc(C(=O)NS(=O)(=O)c4ccc(N[C@H](CCN5CCOCC5)CSc5ccccc5)c(S(=O)(=O)C(F)(F)F)c4)cc3)CC2)C1 [Navitoclax] (partner 0.5 µM)
# Outline: as §1
# Dabrafenib + Foretinib = compound: CC(C)(C)c1nc(-c2cccc(NS(=O)(=O)c3c(F)cccc3F)c2F)c(-c2ccnc(N)n2)s1 [Dabrafenib] + COc1cc2c(Oc3ccc(NC(=O)C4(C(=O)Nc5ccc(F)cc5)CC4)cc3F)ccnc2cc1OCCCN1CCOCC1 [Foretinib] (partner 0.25 µM)
# Outline: as §1
# VX-702 + Decitabine = compound: NC(=O)c1ccc(N(C(N)=O)c2c(F)cccc2F)nc1-c1ccc(F)cc1F [VX-702] + Nc1ncn([C@H]2C[C@H](O)[C@@H](CO)O2)c(=O)n1 [Decitabine] (partner 2 µM)
# Outline: as §1
Cell Line,relative viability (Dabrafenib + Decitabine; first compound 0.003 µM),relative viability (Dabrafenib + Decitabine; first compound 0.009487 µM),relative viability (Dabrafenib + Decitabine; first compound 0.03 µM),relative viability (Dabrafenib + Decitabine; first compound 0.09487 µM),relative viability (Dabrafenib + Decitabine; first compound 0.3 µM),relative viability (VX-702 + Navitoclax; first compound 0.02 µM),relative viability (VX-702 + Navitoclax; first compound 0.2 µM),relative viability (VX-702 + Navitoclax; first compound 0.6325 µM),relative viability (VX-702 + Navitoclax; first compound 2 µM),relative viability (Dabrafenib + Foretinib; first compound 0.003 µM),relative viability (Dabrafenib + Foretinib; first compound 0.009487 µM),relative viability (Dabrafenib + Foretinib; first compound 0.03 µM),relative viability (Dabrafenib + Foretinib; first compound 0.09487 µM),relative viability (Dabrafenib + Foretinib; first compound 0.3 µM),relative viability (VX-702 + Decitabine; first compound 0.02 µM),relative viability (VX-702 + Decitabine; first compound 0.2 µM),relative viability (VX-702 + Decitabine; first compound 0.6325 µM),relative viability (VX-702 + Decitabine; first compound 2 µM)
COR-L 105,0.6,0.691,0.666,0.681,0.675,0.82,0.61,0.851,1.08,0.971,1.32,1.18,1.11,1.41,0.619,0.722,0.696,0.636
ChaGo-K-1,0.456,0.508,0.552,0.522,0.402,0.991,0.403,0.898,1.4,1.05,0.902,0.906,0.883,0.95,0.532,0.493,0.516,0.525
EKVX,–,0.38,0.29,0.44,0.353,0.96,0.932,0.882,0.986,0.457,0.603,0.793,0.886,0.987,0.425,0.29,0.303,0.276
EMC-BAC-2,–,0.959,0.974,0.933,0.905,1.19,1.13,1.18,1.24,1.01,1.01,0.766,0.924,1.06,0.969,0.962,0.944,0.885
EPLC-272H,–,0.393,0.367,0.365,0.442,1.23,1.08,1.05,1.17,0.671,0.811,0.619,0.587,0.738,0.353,0.373,0.374,0.403
H3255,0.539,0.704,0.585,0.625,0.649,0.508,0.446,0.501,0.557,0.688,0.897,1.09,0.667,0.839,0.541,–,0.671,0.625
HARA,–,0.537,0.595,0.539,0.499,1.08,1.14,1.05,1.09,0.907,0.906,–,0.78,0.972,0.567,–,0.512,0.523
HCC-15,0.586,0.677,0.665,0.669,0.636,0.691,0.648,0.656,0.699,0.944,1.07,1.08,0.852,1.03,0.656,0.586,0.627,0.647
HCC-78,–,0.681,0.55,0.625,0.474,0.673,0.772,0.806,0.852,–,0.633,0.537,0.632,0.581,0.744,0.669,0.715,0.665
HCC-366,0.392,0.33,0.404,0.364,0.176,0.971,0.988,1.1,0.918,0.894,0.944,0.812,0.875,0.891,0.331,0.305,0.353,0.266
HCC-827,0.267,0.347,0.33,–,0.283,1.01,0.988,0.891,0.939,1.11,1.04,0.876,–,1.03,0.295,0.31,0.337,0.189
HOP-62,0.216,0.183,0.221,0.188,0.217,1.28,0.848,1.03,1.15,1.12,1.1,1.16,0.969,1.12,0.209,0.166,0.206,0.196
LC-2-ad,0.749,0.753,0.776,0.771,0.689,0.467,0.565,0.475,0.561,–,1.09,0.82,0.922,1.1,0.849,0.807,0.821,0.776
LCLC-97TM1,–,0.19,0.184,0.197,0.194,0.379,0.458,0.344,0.489,0.938,0.99,0.972,0.864,0.953,0.241,0.232,0.232,0.228
LK-2,0.225,0.287,–,0.326,0.22,0.834,0.811,0.64,0.781,1.14,1.17,–,1.28,1.26,0.26,0.329,0.218,0.318
LOU-NH91,–,0.868,0.845,0.838,0.861,0.638,0.638,0.643,0.422,0.858,1.01,0.894,0.918,0.958,0.837,0.832,0.815,0.766
